22 molecules from US20180002320A1, “USE OF MACROCYCLIC PICOLINAMIDES AS FUNGICIDES” (DOW AGROSCIENCES LLC, priority 2014, published 2018) can be followed below.

Read-outs that look alike come from different tables or passages of the source.

For one assay, the system named is Zymoseptoria tritici. Nature of the assay: Leaf Blotch of Wheat (SEPTTR) fungicidal activity. In kind it is in vivo. The note with it: for pest or weed control at 121.5 g/ha: Low Volume (121.5 g/H); for pest or weed control at 100 µg/mL: High Volume (100 ppm). On the procedure:
Technical grades of materials were dissolved in acetone, which were then mixed with nine volumes of H2O containing 110 ppm Triton X-100. The fungicide solutions were applied onto wheat seedlings using an automated booth sprayer to run-off. All sprayed plants were allowed to air dry prior to further handling. All fungicides were evaluated using the aforementioned method for their activity vs. all target diseases, unless stated otherwise. Wheat leaf blotch and brown rust activity were also evaluated using track spray applications, in which case the fungicides were formulated as EC formulations, containing 0.1% Trycol 5941 in the spray solutions. Wheat plants (variety Yuma) were grown from seed in a greenhouse in 50% mineral soil/50% soil-less Metro mix until the first leaf was fully emerged, with 7-10 seedlings per pot. These plants were inoculated with an aqueous spore suspension of Zymoseptoria tritici either prior to or after fungicide treatments. After inoculation the plants were kept in 100% relative humidity (one day in a dark dew chamber followed by two to three days in a lighted dew chamber at 20° C.) to permit spores to germinate and infect the leaf. The plants were then transferred to a greenhouse set at 20° C. for disease to develop. When disease symptoms were fully expressed on the 1st leaves of untreated plants, infection levels were assessed on a scale of 0 to 100 percent disease severity. Percent disease control was calculated using the ratio of disease severity on treated plants relative to untreated plants.

The test system of the next assay is Puccinia triticina. Nature of the assay: Wheat Brown Rust (PUCCRT) fungicidal activity. Particulars: for pest or weed control at 121.5 g/ha: Low Volume (121.5 g/H); for pest or weed control at 100 µg/mL: High Volume (100 ppm). In kind it is in vivo. On the procedure: Technical grades of materials were dissolved in acetone, which were then mixed with nine volumes of H2O containing 110 ppm Triton X-100. The fungicide solutions were applied onto wheat seedlings using an automated booth sprayer to run-off. All sprayed plants were allowed to air dry prior to further handling. All fungicides were evaluated using the aforementioned method for their activity vs. all target diseases, unless stated otherwise. Wheat leaf blotch and brown rust activity were also evaluated using track spray applications, in which case the fungicides were formulated as EC formulations, containing 0.1% Trycol 5941 in the spray solutions. Wheat plants (variety Yuma) were grown from seed in a greenhouse in 50% mineral soil/50% soil-less Metro mix until the first leaf was fully emerged, with 7-10 seedlings per pot. These plants were inoculated with an aqueous spore suspension of Puccinia triticina either prior to or after fungicide treatments. After inoculation the plants were kept in a dark dew room at 22° C. with 100% relative humidity overnight to permit spores to germinate and infect the leaf. The plants were then transferred to a greenhouse set at 24° C. for disease to develop. Fungicide formulation, application and disease assessment followed the procedures as described in the Example A.

The mark [1] stands for this setting: 24 h, 1 Day Protectant, read-out: SEPTTR 1DP disease control.
[2] abbreviates: 24 h, 1 Day Protectant, read-out: PUCCRT 1DP disease control.
Setting [3] is: 72 h, 3 Day Curative, read-out: PUCCRT 3DC disease control.
The mark [4] stands for this setting: 72 h, 3 Day Curative, read-out: SEPTTR 3DC disease control.

As to `COc1ccnc(C(=O)N[C@H]2CCCC[C@H](CC3CCCC3)[C@@H](OC)[C@H](C)OC2=O)c1OC(C)=O` [Compound 59], the pest or weed control at 121.5 g/ha with Zymoseptoria tritici (setting [1]) was under 80%; in the assay with Puccinia triticina (setting [2]) it was over 80%; in the assay on Puccinia triticina (setting [3]), over 80%.

For `COc1ccnc(C(=O)N[C@H]2CCCC[C@H](Cc3ccccc3)[C@@H](OC(=O)C(C)C)[C@H](C)OC2=O)c1OCOC(C)=O` [Compound 60], the pest or weed control at 121.5 g/ha with Zymoseptoria tritici (setting [1]), in the assay with Zymoseptoria tritici (setting [4]), with Puccinia triticina (setting [2]) and in the assay on Puccinia triticina (setting [3]) was over 80% in each case.

Consider `COc1ccnc(C(=O)N[C@H]2CCCC[C@H](CC3CCCC3)[C@@H](OC)[C@H](C)OC2=O)c1OCOC(C)=O` [Compound 61], for which the pest or weed control at 121.5 g/ha is under 80% with Zymoseptoria tritici (setting [1]), under 80% in the assay on Zymoseptoria tritici (setting [4]), over 80% in the assay on Puccinia triticina (setting [2]) and over 80% in the assay with Puccinia triticina (setting [3]).

Take `COc1ccnc(C(=O)N[C@H]2CCCC[C@H](Cc3ccccc3)[C@@H](Oc3ccccc3)[C@H](C)OC2=O)c1OCOC(C)=O` [Compound 62]: the pest or weed control at 121.5 g/ha in the assay with Zymoseptoria tritici (setting [1]) is over 80%; with Zymoseptoria tritici (setting [4]), over 80%; with Puccinia triticina (setting [2]), over 80%; in the assay on Puccinia triticina (setting [3]) it was under 80%.

Consider `COc1ccnc(C(=O)N[C@H]2CCCC[C@H](Cc3ccccc3)[C@@H](Oc3ccccc3)[C@H](C)OC2=O)c1OC(C)=O` [Compound 64], for which the pest or weed control at 121.5 g/ha was over 80% with Zymoseptoria tritici (setting [1]), over 80% in the assay on Zymoseptoria tritici (setting [4]), over 80% with Puccinia triticina (setting [2]) and under 80% in the assay on Puccinia triticina (setting [3]).

Consider `COc1ccc(C[C@H]2CCOC[C@H](NC(=O)c3nccc(OC)c3OC(C)=O)C(=O)O[C@@H](C)[C@@H]2Oc2ccccc2)cc1` [Compound 65], for which the pest or weed control at 121.5 g/ha was over 80% in the assay on Zymoseptoria tritici (setting [1]), under 80% in the assay on Zymoseptoria tritici (setting [4]), over 80% with Puccinia triticina (setting [2]) and under 80% with Puccinia triticina (setting [3]).

With `COc1ccc(C[C@H]2CCOC[C@H](NC(=O)c3nccc(OC)c3OCOC(C)=O)C(=O)O[C@@H](C)[C@@H]2Oc2ccccc2)cc1` [Compound 66], the pest or weed control at 121.5 g/ha in the assay with Zymoseptoria tritici (setting [1]) is over 80%; with Zymoseptoria tritici (setting [4]), over 80%; in the assay on Puccinia triticina (setting [2]) it was over 80%; with Puccinia triticina (setting [3]), under 80%.

As for `COc1ccc(C[C@H]2CCOC[C@H](NC(=O)c3nccc(OC)c3OCOC(=O)C(C)C)C(=O)O[C@@H](C)[C@@H]2Oc2ccccc2)cc1` [Compound 67, ((4-methoxy-2-(((3S,8S,9R,10S)-8-(4-methoxybenzyl)-10-methyl-2-oxo-9-phenoxy-1,5-dioxecan-3-yl)carbamoyl)pyridin-3-yl)oxy)methyl isobutyrate], the pest or weed control at 121.5 g/ha with Zymoseptoria tritici (setting [1]) was over 80%; with Zymoseptoria tritici (setting [4]), under 80%; with Puccinia triticina (setting [2]) it was over 80%; in the assay on Puccinia triticina (setting [3]) it was under 80%.

For `COc1ccc(C[C@H]2CCOC[C@H](NC(=O)c3nccc(OC)c3OC(=O)C(C)C)C(=O)O[C@@H](C)[C@@H]2Oc2ccccc2)cc1` [Compound 68], the figures for the pest or weed control at 121.5 g/ha in the assay with Zymoseptoria tritici (setting [1]), in the assay with Zymoseptoria tritici (setting [4]) and with Puccinia triticina (setting [2]) were under 80%, under 80% and over 80%, respectively.

Regarding `CC[C@H]1CCOC[C@H](NC(=O)c2nccc(OC)c2OCOC(C)=O)C(=O)O[C@@H](C)[C@@H]1Oc1ccccc1` [Compound 69], the pest or weed control at 121.5 g/ha with Zymoseptoria tritici (setting [1]), with Zymoseptoria tritici (setting [4]), in the assay with Puccinia triticina (setting [2]) and in the assay on Puccinia triticina (setting [3]) was over 80% in each case.

As for `CC[C@H]1CCOC[C@H](NC(=O)c2nccc(OC)c2OCOC(C)=O)C(=O)O[C@@H](C)[C@@H]1OCC(C)C` [Compound 70], the pest or weed control at 121.5 g/ha with Zymoseptoria tritici (setting [1]) is over 80%; in the assay on Zymoseptoria tritici (setting [4]) it was under 80%; in the assay on Puccinia triticina (setting [2]), over 80%; in the assay with Puccinia triticina (setting [3]), over 80%.

As for `COc1ccnc(C(=O)N[C@H]2COCC[C@H](Cc3ccc(F)cc3)[C@@H](Oc3ccccc3)[C@H](C)OC2=O)c1OC(C)=O` [Compound 71], the pest or weed control at 121.5 g/ha with Zymoseptoria tritici (setting [1]), in the assay on Zymoseptoria tritici (setting [4]), with Puccinia triticina (setting [2]) and in the assay on Puccinia triticina (setting [3]) was over 80% in each case.

With `COc1ccnc(C(=O)N[C@H]2COCC[C@H](Cc3ccc(F)cc3)[C@@H](Oc3ccccc3)[C@H](C)OC2=O)c1OCOC(C)=O` [Compound 72], the pest or weed control at 121.5 g/ha in the assay on Zymoseptoria tritici (setting [1]), in the assay with Zymoseptoria tritici (setting [4]), in the assay on Puccinia triticina (setting [2]) and in the assay with Puccinia triticina (setting [3]) was over 80% throughout.

Take `COc1ccnc(C(=O)N[C@H]2COCC[C@H](Cc3ccc(F)cc3)[C@@H](Oc3ccccc3)[C@H](C)OC2=O)c1OCOC(=O)C(C)C` [Compound 73]: the pest or weed control at 121.5 g/ha with Zymoseptoria tritici (setting [1]), in the assay on Zymoseptoria tritici (setting [4]), in the assay with Puccinia triticina (setting [2]) and in the assay on Puccinia triticina (setting [3]) was over 80% each time.

On to `COc1ccnc(C(=O)N[C@H]2COCC[C@H](Cc3ccc(F)cc3)[C@@H](OCC3CC3)[C@H](C)OC2=O)c1OCOC(C)=O` [Compound 74], for which the pest or weed control at 121.5 g/ha in the assay with Zymoseptoria tritici (setting [1]) is over 80%; in the assay on Zymoseptoria tritici (setting [4]), under 80%; with Puccinia triticina (setting [2]), over 80%; in the assay with Puccinia triticina (setting [3]) it was over 80%.

Take `COc1ccnc(C(=O)N[C@H]2COCC[C@H](Cc3ccc(F)cc3)[C@@H](OC(=O)C(C)C)[C@H](C)OC2=O)c1OC(C)=O` [Compound 75]: the pest or weed control at 121.5 g/ha in the assay on Zymoseptoria tritici (setting [1]) is over 80%; in the assay with Zymoseptoria tritici (setting [4]), under 80%; in the assay with Puccinia triticina (setting [2]) it was over 80%; with Puccinia triticina (setting [3]), over 80%.

With `COc1ccnc(C(=O)N[C@H]2COCC[C@H](Cc3ccc(F)cc3)[C@@H](OC(=O)C(C)C)[C@H](C)OC2=O)c1OCOC(C)=O` [Compound 76], the pest or weed control at 121.5 g/ha with Zymoseptoria tritici (setting [1]), with Zymoseptoria tritici (setting [4]), in the assay on Puccinia triticina (setting [2]) and in the assay on Puccinia triticina (setting [3]) was over 80% each time.

For the molecule `COc1ccnc(C(=O)N[C@H]2COCC[C@H](Cc3ccc(F)cc3)[C@@H](OCC3CC3)[C@H](C)OC2=O)c1OC(C)=O` [Compound 77], the pest or weed control at 121.5 g/ha with Zymoseptoria tritici (setting [1]) was over 80%; in the assay with Zymoseptoria tritici (setting [4]) it was under 80%; with Puccinia triticina (setting [2]), over 80%; in the assay on Puccinia triticina (setting [3]), over 80%.

On to `CCOCC(=O)OCOc1c(OC)ccnc1C(=O)N[C@H]1COCC[C@H](Cc2ccc(F)cc2)[C@@H](OCC2CC2)[C@H](C)OC1=O` [Compound 78], for which the pest or weed control at 121.5 g/ha in the assay on Zymoseptoria tritici (setting [1]) is over 80%; in the assay on Zymoseptoria tritici (setting [4]) it was under 80%; with Puccinia triticina (setting [2]), over 80%; in the assay with Puccinia triticina (setting [3]) it was over 80%.

Regarding `CC[C@H]1CCOC[C@H](NC(=O)c2nccc(OC)c2OCOC(C)=O)C(=O)O[C@@H](C)[C@@H]1OC(=O)C1CC1` [Compound 79], the pest or weed control at 121.5 g/ha with Zymoseptoria tritici (setting [1]), with Puccinia triticina (setting [2]) and in the assay with Puccinia triticina (setting [3]) was over 80% throughout.

Regarding `CC[C@H]1CCOC[C@H](NC(=O)c2nccc(OC)c2OC(C)=O)C(=O)O[C@@H](C)[C@@H]1OC(=O)c1ccccc1` [Compound 80], the pest or weed control at 121.5 g/ha was over 80% in the assay with Zymoseptoria tritici (setting [1]), under 80% in the assay with Zymoseptoria tritici (setting [4]), over 80% with Puccinia triticina (setting [2]) and over 80% with Puccinia triticina (setting [3]).

Regarding `COc1ccnc(C(=O)N[C@H]2COCCC[C@@H](CCC(C)C)[C@H](C)OC2=O)c1O` [Compound 112], the pest or weed control at 100 µg/mL with Zymoseptoria tritici (setting [1]), with Zymoseptoria tritici (setting [4]), in the assay on Puccinia triticina (setting [2]) and in the assay on Puccinia triticina (setting [3]) was under 80% each time.
